Source: patent US20080064668A1, “1,3-Diacylated, 26,27-Alkyl/Haloakyl Vitamin D3 Compounds and Methods of Use Thereof” (BioXell S.p.A., priority 2003, published 2008)
Entries after “also recorded” stand apart in the source; their conditions may differ.

Legend:
[1] = system: RT4; test: Proliferation assay using bladder cancer cell lines, RT4; type: cell-based, human; details: 72 h culture, CyQuant proliferation assay
Protocol: (§1) Bladder cancer cell lines (T24, RT112, HT1376 and RT4 are human bladder cancer cell lines; NHEK are normal human keratinocytes) were obtained from the European Collection of Cell Cultures (Salisbury, UK). Cells were plated at 3×10^3 per well, in flat bottomed 96-well plates in 100 μl of DMEM medium containing: 5% Fetal Clone I, 50 μg/l gentamicin, 1 mM sodium pyruvate and 1% non-essential amino acids. After culturing for 24 h at 37° C. in 5% CO2, to allow cells to adhere to the plates, VDR ligands (compounds (2), (4), (5) and other vitamin D3 analogs as shown in Table 4) were added at concentrations ranging from 100 μM to 0.3 μM in 100 μl of above-mentioned complete medium. After a further 72 h of culture, cell proliferation was measured using a fluorescence-based proliferation assay kit. (CyQuant Cell Proliferation Assay Kit, Molecular Probes, Eugene, Oreg., USA). The IC50 was calculated from the regression curve of the titration data.

[2] = system: HT 1376; test: Proliferation assay using bladder cancer cell lines, HT1376; type: cell-based, human; details: 72 h culture, CyQuant proliferation assay
Protocol: as §1

[3] = system: ECV; test: Proliferation assay using bladder cancer cell lines, ECV; type: cell-based, human; details: 72 h culture, CyQuant proliferation assay
[4] = system: NHEK; test: Proliferation assay, NHEK normal human keratinocytes; type: cell-based; details: 72 h culture, CyQuant proliferation assay
Protocol: as §1

[5] = Determination of Maximum Tolerated Dose (MTD); details: for MTD at 4 days: female, C57BL/6, mouse, in vivo, po; for MTD compared with the corresponding dihydroxy (parent) compound: versus (1) or (3)
Protocol: The maximum tolerated dose of the vitamin D3 compounds of the invention were determined in eight week-old female C57BL/6 mice (3 mice/group) dosed orally (0.1 ml/mouse) with various concentrations of Vitamin D3 analogs daily for four days. Analogs were formulated in miglyol for a final concentration of 0.01, 0.03, 0.1 0.3, 1, 3, 10, 30, 100 and 300 μg/kg when given at 0.1 ml/mouse p.o. daily. Blood for serum calcium assay was drawn by tail bleed on day five, the final day of the study.

[6] = system: IFN-γ production; test: IFN-γ production in the mixed leukocyte response (MLR); type: cell-based; details: 120 h; allogeneic PBMC from 2 donors, 5 days, ELISA; read-out: INF-γ IC50
Protocol: Immature dendritic cells (DC) were prepared as described in Romani, N. et al. (Romani, N. et al. (1996) J. Immunol. Meth. 196:137). IFN-γ production by allogeneic T cell activation in the mixed leukocyte response (MLR) was determined as described in Penna, G., et al., J Immunol., 164: 2405-2411 (2000).
Briefly, peripheral blood mononuclear cells (PBMC) were separated from buffy coats by Ficoll gradient and the same number (3×10^5) of allogeneic PBMC from 2 different donors were co-cultured in 96-well flat-bottom plates. The vitamin D3 compounds were added to each of the cultures.

[7] = system: RT112; test: Proliferation assay using bladder cancer cell lines, RT112; type: cell-based, human; details: 72 h culture, CyQuant proliferation assay
Protocol: as §1

[8] = MTD in CD1 mouse (highest non-hypercalcemic dose); details: in vivo
[9] = system: Human BPH cells; test: BPH cell proliferation assay (testosterone-induced); type: cell-based; details: 48 h
Protocol: Human BPH cells, prepared, maintained and used as previously described in Crescioli C, et al. Journal of Clinical and Endocrinology Metabolism (2000) 85 p 2576-2583, were obtained from prostate tissues derived from 5 patients, who underwent suprapubic adenomectomy for BPH, after informed consent and approval by the Local Ethical Committee.
For all cell proliferation assays, 4×10^4 BPH cells were seeded onto 12-well plates in their growth medium, starved in red- and serum-free medium containing 0.1% BSA for 24 h, and then treated with specific stimuli for 48 h. Cells in phenol red- and serum-free medium containing 0.1% BSA were used as controls. Thereafter, cells were trypsinized, and each experimental point was derived from hemocytometer counting, averaging at least six different fields for each well, as previously reported (see Crescioli C, et al. Journal of Clinical and Endocrinology Metabolism (2000) 85 p 2576-2583).
Growth assays were also carried out using a fixed concentration of androgens (10 nM) with or without vitamin-D analogs (1 nM, 10 nM) or the anti-androgens finasteride (F, 1 nM) and cyproterone acetate (Cyp, 100 nM. Growth assays were also performed using a fixed concentration of T (10 nM) or GFs (10 ng/ml) with or without the vitamin-D analogs. (10 nM).
In the same experiment, each experimental point was repeated in triplicate or quadruplicate and experiments were performed 3 times. Results are expressed as % variation (mean±SEM) over the maximal T or GF-induced stimulation.

Row | SMILES | IC50 ([1]; Homo sapiens, RT-4, 72 h) [µM] | IC50 ([2]; Homo sapiens, HT-1376) [µM] | IC50 ([3]; Homo sapiens) [µM] | IC50 ([4]; Homo sapiens, NHEK) [µM] | MTD at 4 days [5] [µg/kg] | IC50 [6] [nM] | IC50 ([7]; Homo sapiens, RT-112, 72 h) [µM] | further results
1 | CC(=O)OC1C/C(=C/C=C2\CCC[C@]3(C)C(C(C)CC#CC(O)(C(F)(F)F)C(F)(F)F)=CCC23)C[C@@H](OC(C)=O)C1 (some centres unmarked) [(4), 1,3-Di-O-acetyl-1,25-Dihydroxy-16-ene-23-yne-26,27-hexafluoro-19-nor-cholecalciferol] | 9 | > 100 | 29 | 0.8 | 10 | 0.525 | 15 | MTD compared with the corresponding dihydroxy (parent) compound [5]: significantly higher; also recorded: considerably greater
2 | CC(=O)OC1C/C(=C/C=C2\CCC[C@]3(C)C(C(C)CC#CC(C)(C)O)=CCC23)C[C@@H](OC(C)=O)C1 (some centres unmarked) [(20), 1,3-Di-O-Acetyl-1,25-dihydroxy-16-ene-23-yne-19-nor-cholecalciferol] | 9 | > 100 | 26.7 | 6.7 | – | – | 1 | MTD [8]: 30 µg/kg
3 | CC(=O)OC1C/C(=C/C=C2\CCC[C@]3(C)C(C(C)CCCC(C)(C)O)=CCC23)C[C@@H](OC(C)=O)C1 (some centres unmarked) [(18), 1,3-Di-O-acetyl-1,25-dihydroxy-16-ene-19-nor-cholecalciferol] | 8 | 96 | 27.9 | 5.8 | – | – | 1 | IC50 [9]: 0.0224 nM; MTD [8]: 3 µg/kg
4 | CC(=O)OC1C/C(=C/C=C2\CCC[C@]3(C)C(C4(CCCC(C)(C)O)CC4)=CCC23)C[C@@H](OC(C)=O)C1 (stereo partly drawn) [(37), 1,3-Di-O-acetyl-1α,25-dihydroxy-16-ene-20-cyclopropyl-19-nor-cholecalciferol] | 3 | – | – | – | 10 | 0.068 | 17.4 | –
5 | CC(=O)OC1C/C(=C/C=C2\CCC[C@]3(C)C(C(C)CC#CC(OC(C)=O)(C(F)(F)F)C(F)(F)F)=CCC23)C[C@@H](OC(C)=O)C1 (some centres unmarked) [(5), 1,3,25-Tri-O-acetyl-1,25-Dihydroxy-16-ene-23-yne-26,27-hexafluoro-19-nor-cholecalciferol] | 7 | > 100 | 32 | 25.6 | 3 | 0.499 | 13 | MTD compared with the corresponding dihydroxy (parent) compound [5]: significantly higher; also recorded: considerably greater
6 | CCC(O)(C#CCC(C)C1=CCC2/C(=C/C=C3/CC(OC(C)=O)C[C@H](OC(C)=O)C3)CCC[C@]12C)CC (some centres unmarked) [(22), 1,3-Di-O-acetyl-1,25-dihydroxy-16-ene-23-yne-26,27-bishomo-19-nor-cholecalciferol] | 9 | > 100 | 81.7 | 4.7 | 100 | 0.0253 | 7 | –
7 | C=C1/C(=C\C=C2/CCC[C@]3(C)C(C(C)CC#CC(OC(C)=O)(C(F)(F)F)C(F)(F)F)=CCC23)CC(OC(C)=O)C[C@@H]1OC(C)=O (some centres unmarked) [(13), 1,3,25-Tri-O-acetyl-1,25-dihydroxy-16-ene-23-yne-26,27-hexafluoro-cholecalciferol] | 95 | – | > 100 | 19.5 | 3 | 0.0401 | 17 | –
8 | C=C1/C(=C\C=C2/CCC[C@]3(C)C(C(C)C/C=C/[C@@](C)(O)C(F)(F)F)=CCC23)CC(OC(C)=O)C[C@@H]1OC(C)=O (some centres unmarked) [(16), 1,3-Di-O-acetyl-1,25-dihydroxy-16,23E-diene-25R,26-trifluoro-cholecalciferol] | 16 | > 100 | 76.6 | 3.1 | – | – | 2 | –
9 | CC(CC#CC(O)(C(F)(F)F)C(F)(F)F)C1=CCC2C(=CC=C3CC(O)CC(O)C3)CCCC12C (centres unmarked) [(3), 1,25-dihydroxy-16-ene-23-yne-26,27-hexafluoro-19-nor-cholecalciferol, reference compound] | – | – | – | – | – | – | – | MTD (mice) ([5]; female C57BL/6 mice, p.o. daily for four days, highest dose without hypercalcemia (serum calcium >10.7 mg/dl)): 0.3 µg/kg
10 | CC(=O)OC1C/C(=C/C=C2\CCC[C@@]3(C)C2CCC3C2(C/C=C\C(O)(C(F)(F)F)C(F)(F)F)CC2)C[C@@H](OC(C)=O)C1 (some centres unmarked) [(33), 1,3-Di-O-acetyl-1,25-dihydroxy-20-cyclopropyl-23Z-ene-26,27-hexafluoro-19-nor-cholecalciferol] | 18 | > 100 | > 100 | 0.9 | – | – | 16 | –
11 | CC(=O)OC1C/C(=C/C=C2\CCC[C@@]3(C)C2CCC3C2(C/C=C/C(O)(C(F)(F)F)C(F)(F)F)CC2)C[C@@H](OC(C)=O)C1 (some centres unmarked) [(31), 1,3-Di-O-acetyl-1,25-dihydroxy-20-cyclopropyl-23E-ene-26,27-hexafluoro-19-nor-cholecalciferol] | 9 | 68 | 24.3 | 0.9 | 0.3 | – | 7 | –
12 | CC(C/C=C\C(O)(C(F)(F)F)C(F)(F)F)C1=CCC2C(=CC=C3CC(O)CC(O)C3)CCCC12C (centres unmarked) [(1), 1,25-dihydroxy-16,23Z-diene-26,27-hexafluoro-19-nor-cholecalciferol, reference compound] | – | – | – | – | – | – | – | IC50 [1]: 20 µM; IC50 [2]: 56 µM; IC50 [3]: 58.7 µM; IC50 [4]: 4.4 µM; IC50 [7]: 24 µM
13 | C=C1/C(=C\C=C2/CCC[C@]3(C)C(C4(CCCC(C)(C)O)CC4)=CCC23)CC(OC(C)=O)C[C@@H]1OC(C)=O (stereo partly drawn) [(39), 1,3-Di-O-acetyl-1α,25-hydroxy-16-ene-20-cyclopropyl-cholecalciferol] | 2.8 | – | – | – | 3 | 0.045 | 21.5 | –
14 | CC(=O)OC1C/C(=C/C=C2\CCC[C@@]3(C)C2CCC3C2(CC#CC(C)(C)O)CC2)C[C@@H](OC(C)=O)C1 (some centres unmarked) [(24), 1,3-Di-O-acetyl-1,25-dihydroxy-20-cyclopropyl-23-yne-19-nor-cholecalciferol] | 7 | > 100 | 21.5 | 6.8 | – | – | 18 | –
